What was measured:
[1] = molecular target: T1, PI3Kβ (Homo sapiens, UniProt P42338); assay: ADP-Glo Lipid Kinase Assay, PI3Kβ kinase activity; type: biochemical; conditions: ratio of IC50 values
T1 construct: purchased Carna #11-102
Procedure: (§1) In this experiment, ADP-Glo Lipid Kinase Assay (Promega #V9102) from Promega was used. The lipid kinases PI3Kα/β/γ/δ catalyzed the ATP-to-ADP reaction in the presence of the substrate PIP2:3PS and ATP. The lipid kinase activity was characterized by measuring the ADP content in the reaction, and the half inhibition concentrations IC50 of the compounds on PI3Kα/β/γ/δ kinase activity were obtained.
(§2) Kinase reactions were carried out in white 384-well plates (Perkin Elmer #6007299). 2 μL of the compound of various concentrations diluted with ddH2O containing 1% DMSO was added to each well, and 2 μL of ddH2O containing 1% DMSO was added to positive control wells. Then 2 μL of 0.1 to 2 nM PI3K kinase solution diluted with 5× kinase buffer (HEPES 250 mM, MgCl2 15 mM, NaCl 250 mM, BSA 0.05%) was added to each well, and 2 μL of 5× kinase buffer was added to the negative control wells. 4 μL of 50 μM substrate PIP2:3PS (Promega #V1701) prepared with 10× Dilution buffer and ddH2O was added to all wells. Finally, 2 μL of 50 to 100 μM ATP solution diluted with water was added to start the reaction. After the reaction was carried out at room temperature for 90 to 120 minutes, 10 µL of ADP-Glo Reagent (containing 10 mM MgCl2) was added to each well, and the reaction was carried out at room temperature for 60 minutes to eliminate excess adenosine triphosphate (ATP) in the reaction. Then 20 μL of Kinase Detection Reagent was added to each well. After the reaction was carried out for 20 minutes at room temperature in the dark, the chemiluminescence was measured by BioTek Synergy H1 microplate reader.
(§3) The percentage inhibition data of the compound-treated well was calculated from positive control wells (DMSO control wells) and negative control wells (no kinase added) on the plate {% inhibition=100−[(test compound value−negative control value)]/(positive control value-negative control value)×100}. IC50 values were calculated using GraphPad prism and using a four-parameter nonlinear logistic formula to fit the data of different concentrations and corresponding percent inhibition.

[2] = molecular target: T2, PI3Kγ (Homo sapiens, UniProt P48736); assay: ADP-Glo Lipid Kinase Assay, PI3Kγ kinase activity; type: biochemical; conditions: ratio of IC50 values
T2 construct: purchased Thermofisher #PV4786
Procedure: as §1, §2, §3

[3] = molecular target: T3, PI3Kδ (Homo sapiens, UniProt O00329); assay: ADP-Glo Lipid Kinase Assay, PI3Kδ kinase activity; type: biochemical; conditions: ratio of IC50 values
T3 construct: purchased Carna #11-103
Procedure: as §1, §2, §3

[4] = test system: HCC1954 (H1047R); assay: Proliferation inhibition of PI3Kα mutant cancer cells, Cell Titer-Glo, HCC1954; type: cell-based; conditions: Homo sapiens
Procedure: (§4) The proliferation inhibitory effect of the compounds of the examples on the PI3Kα mutant cancer cell lines (HCC1954, HGC-27 and MKN1) was detected by Cell Titer-Glo method. Cell lines were cultured in RPMI 1640 medium (Gibco #22400089) containing 10% FBS (Gibco #10091148) and 1% P/S (Hyclone #SV30010) under the condition of 37° C. and 5% CO2. The cells were collected before the experiment, and the cell density was adjusted after cell counting. The cells were seeded in a white 96-well plate (Corning #3610) at a density of 1000 to 10000 cells/well, and incubated in an incubator at 37° C. and 5% CO2 overnight. The prepared compound solutions of different concentrations and the corresponding solvent controls were added to the plate. The plate was again incubated in an incubator at 37° C. and 5% CO2 for 48 to 96 hours. Then the cell plate and its contents were equilibrated to room temperature. 20 to 100 μL of Cell Titer-Glo solution (Promega #G7573) was added to each well, and the plate was shaken and mixed well, then incubated at room temperature for 5 to 30 minutes in the dark. The chemiluminescence was measured by a SynergyH1 microplate reader from BioTek.
(§5) The percentage inhibition data of the compound-treated well was calculated from solvent control wells on the plate {% inhibition=100−([…])×100}. IC50 values were calculated using GraphPad prism and using a four-parameter nonlinear logistic formula to fit the data of different concentrations and corresponding percent inhibition.

[5] = test system: MKN1 (E545K); assay: Proliferation inhibition of PI3Kα mutant cancer cells, Cell Titer-Glo, MKN1; type: cell-based; conditions: Homo sapiens, MKN-1
Procedure: as §4, §5

[6] = test system: HGC-27 (E542K); assay: Proliferation inhibition of PI3Kα mutant cancer cells, Cell Titer-Glo, HGC-27; type: cell-based; conditions: Homo sapiens
Procedure: as §4, §5

T3 sequence (O00329 whole entry): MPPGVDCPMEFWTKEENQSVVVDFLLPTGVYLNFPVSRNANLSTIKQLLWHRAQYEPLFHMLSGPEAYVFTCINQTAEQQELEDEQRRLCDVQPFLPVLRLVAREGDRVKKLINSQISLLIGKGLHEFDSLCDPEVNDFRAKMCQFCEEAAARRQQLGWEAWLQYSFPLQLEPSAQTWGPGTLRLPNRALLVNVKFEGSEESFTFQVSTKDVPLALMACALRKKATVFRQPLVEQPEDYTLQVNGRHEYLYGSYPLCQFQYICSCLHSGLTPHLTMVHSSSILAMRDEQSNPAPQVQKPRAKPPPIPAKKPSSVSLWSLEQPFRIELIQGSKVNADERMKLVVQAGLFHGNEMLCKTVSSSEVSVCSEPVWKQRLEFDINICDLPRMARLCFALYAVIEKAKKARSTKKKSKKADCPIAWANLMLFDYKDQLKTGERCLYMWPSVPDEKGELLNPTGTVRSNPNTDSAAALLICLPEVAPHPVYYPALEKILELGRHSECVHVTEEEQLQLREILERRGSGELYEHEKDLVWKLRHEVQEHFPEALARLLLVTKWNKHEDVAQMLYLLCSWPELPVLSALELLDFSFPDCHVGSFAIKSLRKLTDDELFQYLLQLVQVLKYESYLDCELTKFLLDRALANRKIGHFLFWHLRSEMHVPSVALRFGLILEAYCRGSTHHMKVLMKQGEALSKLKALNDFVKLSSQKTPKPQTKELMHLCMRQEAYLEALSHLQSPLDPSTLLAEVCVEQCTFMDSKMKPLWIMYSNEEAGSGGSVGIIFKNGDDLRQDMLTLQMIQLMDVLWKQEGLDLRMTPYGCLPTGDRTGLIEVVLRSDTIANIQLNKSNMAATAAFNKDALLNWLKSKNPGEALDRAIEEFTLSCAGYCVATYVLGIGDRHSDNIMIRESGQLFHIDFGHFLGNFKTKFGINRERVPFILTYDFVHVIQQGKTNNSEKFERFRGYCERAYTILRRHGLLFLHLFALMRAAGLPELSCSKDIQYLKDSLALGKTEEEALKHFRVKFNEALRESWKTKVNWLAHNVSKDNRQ
T3 sequence (P27986 whole entry partner): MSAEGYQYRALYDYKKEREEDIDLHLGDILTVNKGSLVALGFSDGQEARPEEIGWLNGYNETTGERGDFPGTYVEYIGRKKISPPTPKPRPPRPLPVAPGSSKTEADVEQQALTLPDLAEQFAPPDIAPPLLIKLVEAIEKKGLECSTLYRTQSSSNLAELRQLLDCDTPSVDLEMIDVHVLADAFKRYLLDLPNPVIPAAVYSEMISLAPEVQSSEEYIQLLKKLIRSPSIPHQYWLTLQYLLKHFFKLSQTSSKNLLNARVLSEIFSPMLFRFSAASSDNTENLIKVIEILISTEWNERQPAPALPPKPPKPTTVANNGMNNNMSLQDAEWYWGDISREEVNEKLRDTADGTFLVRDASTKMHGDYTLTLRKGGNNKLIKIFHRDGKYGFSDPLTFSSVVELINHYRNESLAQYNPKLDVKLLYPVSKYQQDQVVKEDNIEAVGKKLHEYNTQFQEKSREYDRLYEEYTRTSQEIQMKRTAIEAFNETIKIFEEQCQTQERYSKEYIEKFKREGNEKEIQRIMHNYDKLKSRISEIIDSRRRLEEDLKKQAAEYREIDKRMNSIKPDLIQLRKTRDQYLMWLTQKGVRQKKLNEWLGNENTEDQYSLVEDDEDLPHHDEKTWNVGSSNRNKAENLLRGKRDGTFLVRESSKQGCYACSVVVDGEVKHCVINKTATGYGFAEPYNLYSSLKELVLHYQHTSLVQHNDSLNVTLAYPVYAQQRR
T2 sequence (P48736 whole entry): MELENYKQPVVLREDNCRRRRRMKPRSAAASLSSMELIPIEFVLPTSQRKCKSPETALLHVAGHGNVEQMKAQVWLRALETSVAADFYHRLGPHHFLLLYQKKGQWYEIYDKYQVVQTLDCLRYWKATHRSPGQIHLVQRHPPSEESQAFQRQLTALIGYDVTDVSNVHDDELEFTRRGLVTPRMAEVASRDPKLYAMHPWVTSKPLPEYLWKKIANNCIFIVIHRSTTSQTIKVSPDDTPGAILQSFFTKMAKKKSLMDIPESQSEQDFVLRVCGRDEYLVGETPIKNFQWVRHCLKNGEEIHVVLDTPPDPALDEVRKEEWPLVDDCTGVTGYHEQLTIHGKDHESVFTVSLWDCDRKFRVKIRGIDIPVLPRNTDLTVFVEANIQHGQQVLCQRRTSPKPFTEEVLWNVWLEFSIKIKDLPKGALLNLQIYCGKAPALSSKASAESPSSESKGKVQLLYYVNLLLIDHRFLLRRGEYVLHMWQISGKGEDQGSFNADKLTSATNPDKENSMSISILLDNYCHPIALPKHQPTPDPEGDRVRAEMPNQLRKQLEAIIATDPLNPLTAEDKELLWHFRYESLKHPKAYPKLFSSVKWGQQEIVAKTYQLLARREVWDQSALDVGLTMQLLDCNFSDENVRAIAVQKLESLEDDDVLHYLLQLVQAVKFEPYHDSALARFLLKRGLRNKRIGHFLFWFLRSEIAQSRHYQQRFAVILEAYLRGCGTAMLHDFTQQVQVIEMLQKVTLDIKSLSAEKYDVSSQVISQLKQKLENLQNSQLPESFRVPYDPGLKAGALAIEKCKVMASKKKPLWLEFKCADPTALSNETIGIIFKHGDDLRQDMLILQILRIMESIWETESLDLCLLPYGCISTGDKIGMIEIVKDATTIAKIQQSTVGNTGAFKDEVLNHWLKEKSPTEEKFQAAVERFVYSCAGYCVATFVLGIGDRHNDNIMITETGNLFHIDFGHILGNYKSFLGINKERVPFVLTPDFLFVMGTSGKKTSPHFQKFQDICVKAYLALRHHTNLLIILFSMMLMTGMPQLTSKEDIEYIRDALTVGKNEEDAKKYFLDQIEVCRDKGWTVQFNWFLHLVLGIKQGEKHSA
T1 sequence (P42338 whole entry): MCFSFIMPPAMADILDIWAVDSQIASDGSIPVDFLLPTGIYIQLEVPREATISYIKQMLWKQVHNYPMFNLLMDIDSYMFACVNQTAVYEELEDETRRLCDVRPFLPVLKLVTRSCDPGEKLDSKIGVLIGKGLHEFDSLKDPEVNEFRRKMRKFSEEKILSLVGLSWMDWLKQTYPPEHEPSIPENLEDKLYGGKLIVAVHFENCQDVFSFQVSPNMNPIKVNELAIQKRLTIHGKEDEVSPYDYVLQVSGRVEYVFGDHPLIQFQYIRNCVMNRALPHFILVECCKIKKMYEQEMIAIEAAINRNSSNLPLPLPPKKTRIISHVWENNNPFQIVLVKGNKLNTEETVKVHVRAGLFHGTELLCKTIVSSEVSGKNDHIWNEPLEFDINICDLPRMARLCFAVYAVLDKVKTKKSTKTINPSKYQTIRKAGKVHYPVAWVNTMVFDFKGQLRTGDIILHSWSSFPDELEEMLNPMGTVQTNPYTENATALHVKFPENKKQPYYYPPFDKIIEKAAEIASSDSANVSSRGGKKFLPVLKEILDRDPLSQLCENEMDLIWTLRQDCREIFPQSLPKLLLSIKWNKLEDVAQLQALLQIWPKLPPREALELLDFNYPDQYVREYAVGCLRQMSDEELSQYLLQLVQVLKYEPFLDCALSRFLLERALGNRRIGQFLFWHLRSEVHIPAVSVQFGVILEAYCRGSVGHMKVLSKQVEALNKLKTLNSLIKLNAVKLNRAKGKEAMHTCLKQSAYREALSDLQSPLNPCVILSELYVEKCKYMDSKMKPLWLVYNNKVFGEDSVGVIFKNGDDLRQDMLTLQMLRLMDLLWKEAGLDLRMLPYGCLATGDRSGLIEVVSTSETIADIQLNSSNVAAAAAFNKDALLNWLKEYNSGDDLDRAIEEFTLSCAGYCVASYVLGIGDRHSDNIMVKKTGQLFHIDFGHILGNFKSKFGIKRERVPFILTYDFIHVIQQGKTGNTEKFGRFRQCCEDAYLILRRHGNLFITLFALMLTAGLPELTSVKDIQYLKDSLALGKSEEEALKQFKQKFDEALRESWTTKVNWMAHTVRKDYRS
T1 sequence (P27986 whole entry partner): as the sequence (P27986 whole entry partner) above

Compound | Selectivity of PI3Kα vs PI3Kβ [1] | Selectivity of PI3Kα vs PI3Kγ [2] | Selectivity of PI3Kα vs PI3Kδ [3] | IC50 [4] [nM] | IC50 [5] [nM] | IC50 [6] [nM]
CC(Nc1ccc2c(c1)OCCn1cc(N3C(=O)OC(C)[C@H]3C(F)F)nc1-2)C(N)=O (stereo in doubt) [Example 26, (R)-2-((2-((4S,5R)-4-(difluoromethyl)-5-methyl-2-oxooxazolidin-3-yl)-5,6-dihydrobenzo[f]imidazo[1,2-d][1,4]oxazepin-9-yl)amino)propionamide] | 1101 | 214 | 125 | 160 | 508 | 325
C[C@H](Nc1ccc2c(c1)OCCn1cc(N3C(=O)CC[C@H]3C(F)F)nc1-2)C(N)=O [Example 46, (S)-2-((2-((S)-2-(difluoromethyl)-5-oxopyrrolidin-1-yl)-5,6-dihydrobenzo[f]imidazo[1,2-d][1,4]oxazepin-9-yl)amino)propionamide] | 785 | 243 | 90 | 184 | 268 | 186
NC(=O)[C@@H]1CCN1c1ccc2c(c1)OCCn1cc(N3C(=O)OC[C@H]3C(F)F)nc1-2 [Example 21, (S)-1-(2-((S)-4-(difluoromethyl)-2-oxooxazolidin-3-yl)-5,6-dihydrobenzo[f]imidazo[1,2-d][1,4]oxazepin-9-yl)azetidine-2-carboxamide] |  |  |  | 205 | 399 | 396
C[C@H](Nc1ccc2c(c1)OCCn1cc(N3C(=O)N(C)C[C@H]3C(F)F)nc1-2)C(N)=O [Example 24, (S)-2-((2-((S)-5-(difluoromethyl)-3-methyl-2-oxoimidazolidin-1-yl)-5,6-dihydrobenzo[f]imidazo[1,2-d][1,4]oxazepin-9-yl)amino)propionamide] | 1238 | 80 | 75 |  |  | 
C[C@H](Nc1ccc2c(c1)OCCn1c-2nc(N2C(=O)OC[C@H]2C(F)F)c1F)C(N)=O [Example 1, (S)-2-((2-((S)-4-(difluoromethyl)-2-oxooxazolidin-3-yl)-3-fluoro-5,6-dihydrobenzo[f]imidazo[1,2-d][1,4]oxazepin-9-yl)amino)propionamide] | >1266 | 226 | 177 |  |  | 
C[C@@H](C(N)=O)N(C)c1ccc2c(c1)OCCn1cc(N3C(=O)OC[C@H]3C(F)F)nc1-2 [Example 19, (S)-2-((2-((S)-4-(difluoromethyl)-2-oxooxazolidin-3-yl)-5,6-dihydrobenzo[f]imidazo[1,2-d][1,4]oxazepin-9-yl)(methyl)amino)propionamide] | 329 | 648 | 29 | 112 | 214 | 169
C[C@H](Nc1cc(F)c2c(c1)OCCn1cc(N3C(=O)OC[C@H]3C(F)F)nc1-2)C(N)=O [Example 32, (S)-2-((2-((S)-4-(difluoromethyl)-2-oxooxazolidin-3-yl)-11-fluoro-5,6-dihydrobenzo[f]imidazo[1,2-d][1,4]oxazepin-9-yl)amino)propionamide] | 536 | 98 | 88 |  |  | 
CC(C)[C@H](Nc1ccc2c(c1)OCCn1cc(N3C(=O)OC[C@H]3C(F)F)nc1-2)C(N)=O [Example 14, (S)-2-((2-((S)-4-(difluoromethyl)-2-oxooxazolidin-3-yl)-5,6-dihydrobenzo[f]imidazo[1,2-d][1,4]oxazepin-9-yl)amino)-3-methylbutanamide] | 358 | 112 | 103 | 204 | 615 | 417

Further lines, results first:

Selectivity of PI3Kα vs PI3Kβ [1] | Selectivity of PI3Kα vs PI3Kγ [2] | Selectivity of PI3Kα vs PI3Kδ [3] | IC50 [4] [nM] | IC50 [5] [nM] | IC50 [6] [nM] | Compound
423 | 254 | 43 | 40 | 66 | 77 | NC(=O)[C@@H]1CCCN1c1ccc2c(c1)OCCn1cc(N3C(=O)SC[C@H]3C(F)F)nc1-2 [Example 53, (S)-1-(2-((R)-4-(difluoromethyl)-2-oxothiazolidin-3-yl)-5,6-dihydrobenzo[f]imidazo[1,2-d][1,4]oxazepin-9-yl)pyrrolidine-2-carboxamide]
238 | 217 | 31 | 29 | 42 | 32 | C[C@@H](C(N)=O)N(C)c1ccc2c(c1)OCCn1cc(N3C(=O)SC[C@H]3C(F)F)nc1-2 [Example 54, (S)-2-((2-((R)-4-(difluoromethyl)-2-oxothiazolidin-3-yl)-5,6-dihydrobenzo[f]imidazo[1,2-d][1,4]oxazepin-9-yl)(methyl)amino)propionamide]
 |  |  | 222 | 368 | 531 | COC[C@H](Nc1ccc2c(c1)OCCn1cc(N3C(=O)OC[C@H]3C(F)F)nc1-2)C(N)=O [Example 43, (S)-2-((2-((S)-4-(difluoromethyl)-2-oxooxazolidin-3-yl)-5,6-dihydrobenzo[f]imidazo[1,2-d][1,4]oxazepin-9-yl)amino)-3-methoxypropionamide]
178 | 87 | 59 | 226 | 653 | 499 | C[C@H](Nc1ccc2c(c1F)OCCn1cc(N3C(=O)OC[C@H]3C(F)F)nc1-2)C(N)=O [Example 31, (S)-2-((2-((S)-4-(difluoromethyl)-2-oxooxazolidin-3-yl)-8-fluoro-5,6-dihydrobenzo[f]imidazo[1,2-d][1,4]oxazepin-9-yl)amino)propionamide]
157 | 170 | 51 | 243 | 426 | 455 | COC[C@H](Nc1ccc2c(c1F)OCCn1cc(N3C(=O)SC[C@H]3C(F)F)nc1-2)C(N)=O [Example 51, (S)-2-((2-((R)-4(difluoromethyl)-2-oxothiazolidin-3-yl)-8-fluoro-5,6-dihydrobenzo[f]imidazo[1,2-d][1,4]oxazepin-9-yl)amino)-3-methoxypropionamide]

From patent publication US12624050B2, “Three fused ring derivative-containing salt or crystal form and pharmaceutical composition thereof” (Shanghai Hansoh Biomedical Co., Ltd., priority 2019, dated 2026)
